Results from patent US20090105270A1, “Kinase inhibition and anticancer therapy” (priority 2007, published 2009).

What was measured:
ALK(h) = biological target: T1, ALK(h) (Homo sapiens, UniProt Q9UM73); assay: Upstate kinase activity inhibition assay ALK(h); type: biochemical; conditions: 40 min; read-out: percentage of enzyme activity that remains
T1 construct: purchased Upstate (KinaseProfiler service)

BrSK2(h) = biological target: T2, BrSK2(h) (Homo sapiens, UniProt Q8IWQ3); assay: Upstate kinase activity inhibition assay BrSK2(h); type: biochemical; conditions: 40 min; read-out: percentage of enzyme activity that remains
T2 construct: purchased Upstate (KinaseProfiler service)

CDK2/cyclinA(h) = biological target: T3, CDK2/cyclinA(h) (Homo sapiens, UniProt P24941); assay: Upstate kinase activity inhibition assay CDK2/cyclinA(h); type: biochemical; conditions: 0.2 μM Compound E
T3 construct: purchased Upstate (KinaseProfiler service)

CDK2/cyclinE(h) = biological target: T4, CDK2/cyclinE(h) (Homo sapiens, UniProt P24941); assay: Upstate kinase activity inhibition assay CDK2/cyclinE(h); type: biochemical; conditions: 4 μM Compound E
T4 construct: purchased Upstate (KinaseProfiler service)

CDK6/cyclinD3(h) = biological target: T5, CDK6/cyclinD3(h) (Homo sapiens, UniProt Q00534); assay: Upstate kinase activity inhibition assay CDK6/cyclinD3(h); type: biochemical; conditions: 40 min; read-out: percentage of enzyme activity that remains
T5 construct: purchased Upstate (KinaseProfiler service)
T5 sequence (Q00534 whole entry): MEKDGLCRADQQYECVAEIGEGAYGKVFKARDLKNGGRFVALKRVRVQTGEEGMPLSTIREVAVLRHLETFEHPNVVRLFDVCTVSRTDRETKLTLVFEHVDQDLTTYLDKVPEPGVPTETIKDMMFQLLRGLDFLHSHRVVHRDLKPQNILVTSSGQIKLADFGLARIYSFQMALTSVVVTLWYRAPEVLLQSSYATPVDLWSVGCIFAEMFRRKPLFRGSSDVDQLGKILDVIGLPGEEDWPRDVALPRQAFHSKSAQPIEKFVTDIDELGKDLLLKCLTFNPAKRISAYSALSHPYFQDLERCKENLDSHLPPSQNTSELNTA
T5 sequence (P30281 whole entry partner): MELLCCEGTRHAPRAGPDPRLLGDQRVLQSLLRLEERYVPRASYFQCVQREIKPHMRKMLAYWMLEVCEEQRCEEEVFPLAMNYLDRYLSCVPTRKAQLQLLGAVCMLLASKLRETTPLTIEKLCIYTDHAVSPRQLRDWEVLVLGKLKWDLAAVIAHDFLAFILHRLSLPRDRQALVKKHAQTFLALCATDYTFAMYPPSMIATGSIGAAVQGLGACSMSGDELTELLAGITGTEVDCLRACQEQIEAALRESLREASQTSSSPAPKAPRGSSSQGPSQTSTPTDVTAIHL

NEK6(h) = biological target: T6, NEK6(h) (Homo sapiens, UniProt Q9HC98); assay: Upstate kinase activity inhibition assay NEK6(h); type: biochemical; conditions: 40 min; read-out: percentage of enzyme activity that remains
T6 construct: purchased Upstate (KinaseProfiler service)

NEK7(h) = NEK7(h) (Homo sapiens, UniProt Q8TDX7); assay: Upstate kinase activity inhibition assay NEK7(h); type: biochemical; conditions: 40 min; read-out: percentage of enzyme activity that remains
PDGFRβ(h) = biological target: T7, PDGFRβ(h) (Homo sapiens, UniProt P09619); assay: Upstate kinase activity inhibition assay PDGFRβ(h); type: biochemical; conditions: 40 min; read-out: percentage of enzyme activity that remains
T7 construct: purchased Upstate (KinaseProfiler service)

Pim-1(h) = Pim-1(h) (Homo sapiens, UniProt P11309); assay: Upstate kinase activity inhibition assay Pim-1(h); type: biochemical; conditions: 40 min; read-out: percentage of enzyme activity that remains
PKBα(h) = biological target: T8, PKBα(h) (Homo sapiens, UniProt P31749); assay: Upstate kinase activity inhibition assay PKBα(h); type: biochemical; conditions: 40 min; read-out: percentage of enzyme activity that remains
T8 construct: purchased Upstate (KinaseProfiler service)

PKCη(h) = biological target: T9, PKCη(h) (Homo sapiens, UniProt P24723); assay: Upstate kinase activity inhibition assay PKCη(h); type: biochemical; conditions: 40 min; read-out: percentage of enzyme activity that remains
T9 construct: purchased Upstate (KinaseProfiler service)

Arg(h) = Arg(h) (Homo sapiens, UniProt P42684); assay: Upstate kinase activity inhibition assay Arg(h); conditions: 40 min, read-out: percentage of enzyme activity that remains
Fgr(h) = Fgr(h) (Homo sapiens, UniProt P09769); assay: Upstate kinase activity inhibition assay Fgr(h); conditions: 40 min, read-out: percentage of enzyme activity that remains
Fms(h) = Fms(h) (Homo sapiens, UniProt P07333); assay: Upstate kinase activity inhibition assay Fms(h); conditions: 40 min, read-out: percentage of enzyme activity that remains
Chain of Fms(h) (P07333 20-972): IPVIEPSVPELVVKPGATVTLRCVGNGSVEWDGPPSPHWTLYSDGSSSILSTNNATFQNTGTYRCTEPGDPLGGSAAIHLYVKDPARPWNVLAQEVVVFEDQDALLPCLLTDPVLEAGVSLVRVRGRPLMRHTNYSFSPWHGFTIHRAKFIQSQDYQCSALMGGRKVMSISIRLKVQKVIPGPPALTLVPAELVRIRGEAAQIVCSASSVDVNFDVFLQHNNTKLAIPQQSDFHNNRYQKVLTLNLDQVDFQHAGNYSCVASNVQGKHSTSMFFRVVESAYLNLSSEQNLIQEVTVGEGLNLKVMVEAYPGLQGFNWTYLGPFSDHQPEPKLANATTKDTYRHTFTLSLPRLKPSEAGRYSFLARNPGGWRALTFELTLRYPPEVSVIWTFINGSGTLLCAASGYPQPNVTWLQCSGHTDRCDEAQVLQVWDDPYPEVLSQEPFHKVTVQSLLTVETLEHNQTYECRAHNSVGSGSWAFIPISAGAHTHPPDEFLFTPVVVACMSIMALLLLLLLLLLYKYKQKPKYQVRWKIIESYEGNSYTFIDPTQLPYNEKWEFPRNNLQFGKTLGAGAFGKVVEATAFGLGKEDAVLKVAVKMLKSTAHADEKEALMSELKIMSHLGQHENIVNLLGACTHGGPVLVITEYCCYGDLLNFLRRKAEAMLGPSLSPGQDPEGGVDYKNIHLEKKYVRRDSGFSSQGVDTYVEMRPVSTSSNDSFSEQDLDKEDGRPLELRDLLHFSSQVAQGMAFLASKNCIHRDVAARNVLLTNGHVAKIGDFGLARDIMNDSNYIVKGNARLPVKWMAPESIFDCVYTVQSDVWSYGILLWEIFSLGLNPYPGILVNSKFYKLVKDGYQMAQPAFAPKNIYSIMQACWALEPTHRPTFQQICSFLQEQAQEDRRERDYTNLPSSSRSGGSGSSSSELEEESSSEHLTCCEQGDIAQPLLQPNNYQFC

KDR(h) = KDR(h) (Homo sapiens, UniProt P35968); assay: Upstate kinase activity inhibition assay KDR(h); conditions: 40 min, read-out: percentage of enzyme activity that remains
SIK(h) = SIK(h) (Homo sapiens, UniProt P57059); assay: Upstate kinase activity inhibition assay SIK(h)
DMPK(h) = DMPK(h) (Homo sapiens, UniProt Q09013); assay: Upstate kinase activity inhibition assay DMPK(h); conditions: 40 min, read-out: percentage of enzyme activity that remains
MLCK(h) = MLCK(h) (Homo sapiens, UniProt Q9H1R3); assay: Upstate kinase activity inhibition assay MLCK(h); conditions: 40 min, read-out: percentage of enzyme activity that remains
MST2(h) = MST2(h) (Homo sapiens, UniProt Q13188); assay: Upstate kinase activity inhibition assay MST2(h); conditions: 40 min, read-out: percentage of enzyme activity that remains
Chain of MST2(h) (Q13188 whole entry): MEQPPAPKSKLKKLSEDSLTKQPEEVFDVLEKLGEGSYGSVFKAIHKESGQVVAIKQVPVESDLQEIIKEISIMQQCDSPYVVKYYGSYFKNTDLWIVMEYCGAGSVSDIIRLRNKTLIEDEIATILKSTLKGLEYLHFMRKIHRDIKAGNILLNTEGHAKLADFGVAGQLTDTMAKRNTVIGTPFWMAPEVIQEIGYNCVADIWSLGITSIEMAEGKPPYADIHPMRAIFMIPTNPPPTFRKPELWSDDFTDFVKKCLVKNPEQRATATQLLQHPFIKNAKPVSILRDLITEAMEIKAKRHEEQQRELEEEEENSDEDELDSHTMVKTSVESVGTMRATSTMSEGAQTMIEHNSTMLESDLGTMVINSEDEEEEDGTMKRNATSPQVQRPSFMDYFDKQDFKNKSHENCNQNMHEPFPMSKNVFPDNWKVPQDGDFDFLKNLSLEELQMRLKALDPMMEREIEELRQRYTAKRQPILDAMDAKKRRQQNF

MST3(h) = MST3(h) (Homo sapiens, UniProt Q9Y6E0); assay: Upstate kinase activity inhibition assay MST3(h)
NEK3(h) = NEK3(h) (Homo sapiens, UniProt P51956); assay: Upstate kinase activity inhibition assay NEK3(h); conditions: 40 min, read-out: percentage of enzyme activity that remains
NLK (h) = NLK (h) (Homo sapiens, UniProt Q9UBE8); assay: Upstate kinase activity inhibition assay NLK (h); conditions: 40 min, read-out: percentage of enzyme activity that remains
Chain of NLK (h) (Q9UBE8 whole entry): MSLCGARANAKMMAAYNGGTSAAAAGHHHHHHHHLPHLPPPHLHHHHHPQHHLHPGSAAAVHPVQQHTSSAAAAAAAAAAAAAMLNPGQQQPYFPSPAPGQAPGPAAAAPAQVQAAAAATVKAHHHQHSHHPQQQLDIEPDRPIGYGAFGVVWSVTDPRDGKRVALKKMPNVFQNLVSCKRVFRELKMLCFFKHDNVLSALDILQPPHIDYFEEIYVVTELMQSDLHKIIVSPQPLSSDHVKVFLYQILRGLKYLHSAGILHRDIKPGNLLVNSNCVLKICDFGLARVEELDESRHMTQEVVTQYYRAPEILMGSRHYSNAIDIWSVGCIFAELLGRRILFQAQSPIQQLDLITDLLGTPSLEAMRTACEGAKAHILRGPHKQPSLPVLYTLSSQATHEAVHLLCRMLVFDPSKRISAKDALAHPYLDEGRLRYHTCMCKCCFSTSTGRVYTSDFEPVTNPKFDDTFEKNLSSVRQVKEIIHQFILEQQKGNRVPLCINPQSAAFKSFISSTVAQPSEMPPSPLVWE

SGK3(h) = SGK3(h) (Homo sapiens, UniProt Q96BR1); assay: Upstate kinase activity inhibition assay SGK3(h); conditions: 40 min, read-out: percentage of enzyme activity that remains
TrkA(h) = TrkA(h) (Homo sapiens, UniProt P04629); assay: Upstate kinase activity inhibition assay TrkA(h); conditions: 40 min, read-out: percentage of enzyme activity that remains
Chain of TrkA(h) (P04629 33-796): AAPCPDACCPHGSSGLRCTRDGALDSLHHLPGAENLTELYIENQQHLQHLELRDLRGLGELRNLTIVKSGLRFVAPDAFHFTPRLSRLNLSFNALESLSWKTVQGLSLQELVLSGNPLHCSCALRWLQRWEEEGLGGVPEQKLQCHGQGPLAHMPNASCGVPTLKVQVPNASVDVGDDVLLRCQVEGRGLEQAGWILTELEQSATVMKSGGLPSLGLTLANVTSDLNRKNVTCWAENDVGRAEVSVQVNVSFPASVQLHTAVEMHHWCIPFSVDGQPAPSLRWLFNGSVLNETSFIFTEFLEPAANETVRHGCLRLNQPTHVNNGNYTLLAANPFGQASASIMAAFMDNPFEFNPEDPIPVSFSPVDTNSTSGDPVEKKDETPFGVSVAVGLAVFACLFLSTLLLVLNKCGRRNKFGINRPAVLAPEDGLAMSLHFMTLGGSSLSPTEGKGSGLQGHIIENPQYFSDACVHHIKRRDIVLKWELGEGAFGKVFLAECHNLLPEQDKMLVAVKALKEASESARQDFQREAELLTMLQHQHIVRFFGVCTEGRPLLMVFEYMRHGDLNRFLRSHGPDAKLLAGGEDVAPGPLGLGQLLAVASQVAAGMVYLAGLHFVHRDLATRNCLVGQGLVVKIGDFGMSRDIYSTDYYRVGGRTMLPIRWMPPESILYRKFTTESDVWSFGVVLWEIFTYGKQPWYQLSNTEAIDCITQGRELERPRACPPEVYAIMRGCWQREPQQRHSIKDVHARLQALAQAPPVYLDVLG

HIPK2(h) = HIPK2(h) (Homo sapiens, UniProt Q9H2X6); assay: Upstate kinase activity inhibition assay HIPK2(h); conditions: 40 min, read-out: percentage of enzyme activity that remains
Chain of HIPK2(h) (Q9H2X6 whole entry): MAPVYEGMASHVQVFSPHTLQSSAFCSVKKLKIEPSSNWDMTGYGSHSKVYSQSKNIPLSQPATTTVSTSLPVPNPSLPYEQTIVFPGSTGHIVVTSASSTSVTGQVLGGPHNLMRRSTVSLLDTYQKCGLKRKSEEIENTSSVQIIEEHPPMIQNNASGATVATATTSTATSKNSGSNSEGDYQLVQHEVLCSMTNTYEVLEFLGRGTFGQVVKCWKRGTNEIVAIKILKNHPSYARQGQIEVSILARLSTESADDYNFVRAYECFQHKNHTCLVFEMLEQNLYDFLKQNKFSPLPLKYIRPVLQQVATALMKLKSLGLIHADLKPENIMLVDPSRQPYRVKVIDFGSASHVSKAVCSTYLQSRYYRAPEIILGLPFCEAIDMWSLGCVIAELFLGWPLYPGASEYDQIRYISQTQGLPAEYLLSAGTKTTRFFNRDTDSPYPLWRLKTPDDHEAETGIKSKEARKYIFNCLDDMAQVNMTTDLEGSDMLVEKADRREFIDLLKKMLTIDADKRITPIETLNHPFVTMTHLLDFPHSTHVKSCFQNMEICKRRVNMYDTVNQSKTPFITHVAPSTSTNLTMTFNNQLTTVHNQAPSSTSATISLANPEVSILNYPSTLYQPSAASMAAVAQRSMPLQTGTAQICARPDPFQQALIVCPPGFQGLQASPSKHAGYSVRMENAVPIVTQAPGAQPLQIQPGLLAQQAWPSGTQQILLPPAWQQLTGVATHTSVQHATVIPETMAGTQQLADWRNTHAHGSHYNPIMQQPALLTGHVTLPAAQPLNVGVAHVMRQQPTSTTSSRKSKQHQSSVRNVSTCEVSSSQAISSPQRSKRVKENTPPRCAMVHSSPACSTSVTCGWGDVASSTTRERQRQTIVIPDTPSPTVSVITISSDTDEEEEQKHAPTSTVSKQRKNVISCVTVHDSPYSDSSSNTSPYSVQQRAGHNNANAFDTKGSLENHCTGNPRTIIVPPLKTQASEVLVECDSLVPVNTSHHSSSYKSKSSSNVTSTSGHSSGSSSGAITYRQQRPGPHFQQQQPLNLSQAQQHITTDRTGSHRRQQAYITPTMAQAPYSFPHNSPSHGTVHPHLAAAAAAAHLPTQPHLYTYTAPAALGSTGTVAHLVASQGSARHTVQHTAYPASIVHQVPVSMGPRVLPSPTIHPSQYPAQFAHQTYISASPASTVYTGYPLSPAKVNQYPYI

CaMKIV(h) = CaMKIV(h) (Homo sapiens, UniProt Q16566); assay: Upstate kinase activity inhibition assay CaMKIV(h); conditions: 40 min, read-out: percentage of enzyme activity that remains
SAPK4(h) = SAPK4(h) (Homo sapiens, UniProt O15264); assay: Upstate kinase activity inhibition assay SAPK4(h); conditions: 40 min, read-out: percentage of enzyme activity that remains
Chain of SAPK4(h) (O15264 whole entry): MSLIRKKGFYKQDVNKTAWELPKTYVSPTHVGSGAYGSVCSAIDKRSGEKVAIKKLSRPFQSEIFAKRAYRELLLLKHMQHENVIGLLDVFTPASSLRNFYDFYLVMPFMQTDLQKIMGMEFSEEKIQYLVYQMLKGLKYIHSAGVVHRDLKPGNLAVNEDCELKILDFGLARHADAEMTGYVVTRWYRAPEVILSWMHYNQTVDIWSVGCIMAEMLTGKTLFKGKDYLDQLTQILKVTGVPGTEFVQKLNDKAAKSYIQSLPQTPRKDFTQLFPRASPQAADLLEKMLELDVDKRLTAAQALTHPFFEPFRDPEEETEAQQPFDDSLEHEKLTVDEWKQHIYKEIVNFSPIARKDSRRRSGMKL

SAPK2a(h) = SAPK2a(h) (Homo sapiens, UniProt Q16539); assay: Upstate kinase activity inhibition assay SAPK2a(h)
CDK1/cyclinB(h) = CDK1/cyclinB(h) (Homo sapiens, UniProt P06493); assay: Upstate kinase activity inhibition assay CDK1/cyclinB(h); conditions: 40 min, read-out: percentage of enzyme activity that remains

Cc1cc(Nc2cc(N3CCN(C)CC3)nc(Sc3ccc(NC(=O)C4CC4)cc3)n2)n[nH]1 [Compound E, Cyclopropane carboxylic acid {4-[4-(4-methyl-piperazin-1-yl)-6-(5-methyl-2H-pyrazol-3-ylamino)-pyrimidin-2-ylsulphanyl]-phenyl}-amide]
remaining activity at 0.2 µM (ALK(h)): 70%
remaining activity at 4 µM (ALK(h)): 58%
remaining activity at 0.2 µM (BrSK2(h)): 102%
remaining activity at 4 µM (BrSK2(h)): 96%
percentage of enzyme activity that remains (CDK2/cyclinA(h)): 99%
percentage of enzyme activity that remains (CDK2/cyclinE(h)): 125%
remaining activity at 0.2 µM (CDK6/cyclinD3(h)): 103%
remaining activity at 4 µM (CDK6/cyclinD3(h)): 97%
remaining activity at 0.2 µM (NEK6(h)): 86%
remaining activity at 4 µM (NEK6(h)): 85%
remaining activity at 0.2 µM (NEK7(h)): 84%
remaining activity at 4 µM (NEK7(h)): 83%
remaining activity at 0.2 µM (PDGFRβ(h)): 102%
remaining activity at 4 µM (PDGFRβ(h)): 90%
remaining activity at 0.2 µM (Pim-1(h)): 102%
remaining activity at 4 µM (Pim-1(h)): 103%
remaining activity at 0.2 µM (PKBα(h)): 110%
remaining activity at 4 µM (PKBα(h)): 110%
remaining activity at 0.2 µM (PKCη(h)): 98%
remaining activity at 4 µM (PKCη(h)): 100%
remaining activity at 0.2 µM (Arg(h)): 8%
remaining activity at 4 µM (Arg(h)): -1%
remaining activity at 0.2 µM (Fgr(h)): 71%
remaining activity at 4 µM (Fgr(h)): 12%
remaining activity at 0.2 µM (Fms(h)): 139%
remaining activity at 4 µM (Fms(h)): 54%
remaining activity at 0.2 µM (KDR(h)): 87%
remaining activity at 4 µM (KDR(h)): 20%
percentage of enzyme activity that remains (SIK(h); 0.2 μM Compound E): 95%
percentage of enzyme activity that remains (SIK(h); 4 μM Compound E): 61%
remaining activity at 0.2 µM (DMPK(h)): 95%
remaining activity at 4 µM (DMPK(h)): 103%
remaining activity at 0.2 µM (MLCK(h)): 95%
remaining activity at 4 µM (MLCK(h)): 88%
remaining activity at 0.2 µM (MST2(h)): 92%
remaining activity at 4 µM (MST2(h)): 74%
percentage of enzyme activity that remains (MST3(h); 0.2 μM Compound E): 97%
percentage of enzyme activity that remains (MST3(h); 4 μM Compound E): 140%
remaining activity at 0.2 µM (NEK3(h)): 102%
remaining activity at 4 µM (NEK3(h)): 125%
remaining activity at 0.2 µM (NLK (h)): 105%
remaining activity at 4 µM (NLK (h)): 99%
remaining activity at 0.2 µM (SGK3(h)): 103%
remaining activity at 4 µM (SGK3(h)): 87%
remaining activity at 0.2 µM (TrkA(h)): 98%
remaining activity at 4 µM (TrkA(h)): 8%
remaining activity at 0.2 µM (HIPK2(h)): 107%
remaining activity at 4 µM (HIPK2(h)): 110%
remaining activity at 0.2 µM (CaMKIV(h)): 100%
remaining activity at 4 µM (CaMKIV(h)): 99%
remaining activity at 0.2 µM (SAPK4(h)): 96%
remaining activity at 4 µM (SAPK4(h)): 92%
percentage of enzyme activity that remains (SAPK2a(h); 0.2 μM Compound E): 116%
percentage of enzyme activity that remains (SAPK2a(h); 4 μM Compound E): 123%
remaining activity at 0.2 µM (CDK1/cyclinB(h)): 108%
remaining activity at 4 µM (CDK1/cyclinB(h)): 102%
